Measured values as given in ChEMBL document CHEMBL1156052, “Discovery of 1-[4-(3-chlorophenylamino)-1-methyl-1H-pyrrolo[3,2-c]pyridin-7-yl]-1-morpholin-4-ylmethanone (GSK554418A), a brain penetrant 5-azaindole CB2 agonist for the treatment of chronic pain” (J Med Chem, 2009).
pEC50, pIC50: −log10 of the molar value.

Experiments:
Cytochrome P450 1A2 = Cytochrome P450 1A2 (Homo sapiens, UniProt P05177); assay: Inhibition of CYP1A2; format: ADME
[1] = biological target: Histamine H2 receptor (Homo sapiens) (UniProt P25021); assay: Binding affinity to human histamine H2 receptor at 1 uM
[2] = biological target: B2 bradykinin receptor (Homo sapiens) (UniProt P30411); assay: Binding affinity to human bradykinin B2 receptor at 1 uM
[3] = biological target: Beta-1 adrenergic receptor (Homo sapiens) (UniProt P08588); assay: Binding affinity to human beta-1 adrenergic receptor at 1 uM
[4] = Binding affinity to central benzodiazepine receptor at 1 uM
[5] = biological target: Type-1 angiotensin II receptor (Homo sapiens) (UniProt P30556); assay: Binding affinity to human AT1 receptor at 1 uM
[6] = biological target: D(2) dopamine receptor (Homo sapiens) (UniProt P14416); assay: Binding affinity to human dopamine D2S receptor at 1 uM
[7] = biological target: 5-hydroxytryptamine receptor 2A (Homo sapiens) (UniProt P28223); assay: Binding affinity to 5HT2A receptor at 1 uM
[8] = Binding affinity to adrenergic alpha1 receptor at 1 uM
Cytochrome P450 2C9 = Cytochrome P450 2C9 (Homo sapiens, UniProt P11712); assay: Inhibition of CYP2C9; format: ADME
[9] = biological target: Adenosine receptor A2a (Homo sapiens) (UniProt P29274); assay: Binding affinity to human adenosine A2A receptor at 1 uM
Cannabinoid receptor 1 = Cannabinoid receptor 1 (Homo sapiens, UniProt P21554); assay: Agonist activity at human recombinant cannabinoid CB1 receptor expressed in MMY23 Saccharomyces cerevisiae assessed as degradation of FDGlu to fluorescein after 24 hrs by spectrofluorimetry; format: functional
[10] = biological target: Galanin receptor type 2 (Homo sapiens) (UniProt O43603); assay: Binding affinity to human GAL2 receptor at 1 uM
[11] = biological target: Histamine H1 receptor (Homo sapiens) (UniProt P35367); assay: Binding affinity to human histamine H1 receptor at 1 uM
Homo sapiens = species: Homo sapiens; assay: Selectivity ratio of EC50 for human recombinant cannabinoid CB1 receptor to EC50 for human recombinant cannabinoid CB2 receptor
Cannabinoid receptor 2 = Cannabinoid receptor 2 (Homo sapiens, UniProt P34972); assay: Agonist activity at human recombinant cannabinoid CB2 receptor expressed in CHOK1 cells assessed as forskolin-induced cAMP production by luciferase assay; format: functional, cell-based, CHO-K1
Rattus norvegicus = assay: Analgesic activity in po dosed rat joint model of chronic pain assessed as minimum effective dose administered BID for 5 days; format: functional; details: 120 h, read-out: MED
[12] = Drug level in rat blood at 130 mg/kg, po after 5 hrs; format: ADME, organism-based; parameters: dose 130 mg/kg, route oral; details: read-out: Drug uptake

D(2) dopamine receptor (Homo sapiens), sequence (P14416 whole entry): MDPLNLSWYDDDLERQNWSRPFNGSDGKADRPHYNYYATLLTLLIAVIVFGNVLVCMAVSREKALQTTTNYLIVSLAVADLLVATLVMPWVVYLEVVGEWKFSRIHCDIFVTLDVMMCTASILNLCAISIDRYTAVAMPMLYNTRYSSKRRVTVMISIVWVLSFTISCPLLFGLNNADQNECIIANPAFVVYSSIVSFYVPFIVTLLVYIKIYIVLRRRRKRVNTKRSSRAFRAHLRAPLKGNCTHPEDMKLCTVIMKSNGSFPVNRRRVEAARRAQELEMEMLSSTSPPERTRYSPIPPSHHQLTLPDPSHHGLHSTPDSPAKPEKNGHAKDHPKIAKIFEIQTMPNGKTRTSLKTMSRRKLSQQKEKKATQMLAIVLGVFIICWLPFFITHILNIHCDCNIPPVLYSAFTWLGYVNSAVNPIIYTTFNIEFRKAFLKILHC
Histamine H1 receptor (Homo sapiens), sequence (P35367 whole entry): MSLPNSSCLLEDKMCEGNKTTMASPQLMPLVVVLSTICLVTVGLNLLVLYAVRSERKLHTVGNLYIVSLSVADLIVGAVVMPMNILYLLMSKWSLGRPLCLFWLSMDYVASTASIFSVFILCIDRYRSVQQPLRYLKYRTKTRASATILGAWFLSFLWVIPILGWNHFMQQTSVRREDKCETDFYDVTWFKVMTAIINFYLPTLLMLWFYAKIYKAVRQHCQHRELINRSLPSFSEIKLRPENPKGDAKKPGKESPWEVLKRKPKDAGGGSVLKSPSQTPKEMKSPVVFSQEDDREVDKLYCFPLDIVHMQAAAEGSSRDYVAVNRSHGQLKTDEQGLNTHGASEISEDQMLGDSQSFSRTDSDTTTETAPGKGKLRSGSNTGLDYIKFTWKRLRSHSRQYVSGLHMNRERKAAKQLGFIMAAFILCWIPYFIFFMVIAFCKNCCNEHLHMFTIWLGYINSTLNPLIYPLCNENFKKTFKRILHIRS
Beta-1 adrenergic receptor (Homo sapiens), sequence (P08588 whole entry, looked up): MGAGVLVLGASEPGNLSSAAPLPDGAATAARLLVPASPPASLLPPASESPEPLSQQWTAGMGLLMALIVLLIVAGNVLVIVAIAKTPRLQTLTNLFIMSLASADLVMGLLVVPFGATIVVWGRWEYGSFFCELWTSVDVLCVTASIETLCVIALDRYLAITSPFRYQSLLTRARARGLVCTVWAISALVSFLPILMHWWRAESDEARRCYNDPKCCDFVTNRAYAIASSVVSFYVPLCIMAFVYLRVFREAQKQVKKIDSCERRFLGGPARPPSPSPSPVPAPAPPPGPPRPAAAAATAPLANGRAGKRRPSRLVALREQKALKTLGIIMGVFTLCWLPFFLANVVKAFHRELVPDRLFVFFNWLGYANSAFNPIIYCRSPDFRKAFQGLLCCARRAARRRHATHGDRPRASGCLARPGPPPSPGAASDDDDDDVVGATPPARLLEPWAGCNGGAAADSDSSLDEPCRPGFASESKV
Galanin receptor type 2 (Homo sapiens), sequence (O43603 whole entry): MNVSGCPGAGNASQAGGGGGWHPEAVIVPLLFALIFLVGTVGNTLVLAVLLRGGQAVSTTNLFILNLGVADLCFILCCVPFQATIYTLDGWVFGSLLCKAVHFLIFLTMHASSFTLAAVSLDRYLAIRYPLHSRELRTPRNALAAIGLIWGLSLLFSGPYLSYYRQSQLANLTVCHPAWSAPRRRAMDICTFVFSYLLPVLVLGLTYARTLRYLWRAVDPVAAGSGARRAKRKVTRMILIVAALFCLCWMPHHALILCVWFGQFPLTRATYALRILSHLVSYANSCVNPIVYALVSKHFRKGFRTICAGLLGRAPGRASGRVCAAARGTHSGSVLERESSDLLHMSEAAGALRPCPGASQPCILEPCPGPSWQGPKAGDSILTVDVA
Histamine H2 receptor (Homo sapiens), sequence (P25021 whole entry): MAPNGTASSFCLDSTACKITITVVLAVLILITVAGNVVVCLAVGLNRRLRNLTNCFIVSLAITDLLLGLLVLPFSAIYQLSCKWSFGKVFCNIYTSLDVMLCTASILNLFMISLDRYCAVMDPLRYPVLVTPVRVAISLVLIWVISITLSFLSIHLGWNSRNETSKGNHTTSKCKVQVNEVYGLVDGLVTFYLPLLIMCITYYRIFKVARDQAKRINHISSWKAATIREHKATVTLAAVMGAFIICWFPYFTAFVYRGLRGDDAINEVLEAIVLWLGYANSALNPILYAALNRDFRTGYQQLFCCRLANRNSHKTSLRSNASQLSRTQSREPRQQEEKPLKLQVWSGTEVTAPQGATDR
B2 bradykinin receptor (Homo sapiens), sequence (P30411 whole entry): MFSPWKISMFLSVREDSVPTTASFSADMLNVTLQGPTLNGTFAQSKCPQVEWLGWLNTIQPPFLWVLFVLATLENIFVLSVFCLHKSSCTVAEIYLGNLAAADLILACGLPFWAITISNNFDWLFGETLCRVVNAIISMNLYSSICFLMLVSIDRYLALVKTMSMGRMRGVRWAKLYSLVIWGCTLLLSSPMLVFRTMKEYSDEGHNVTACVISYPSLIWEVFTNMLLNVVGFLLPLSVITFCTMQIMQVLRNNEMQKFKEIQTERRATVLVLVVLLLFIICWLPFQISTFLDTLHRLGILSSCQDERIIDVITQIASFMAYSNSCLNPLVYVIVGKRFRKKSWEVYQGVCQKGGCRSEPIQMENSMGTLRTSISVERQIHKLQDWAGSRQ
Type-1 angiotensin II receptor (Homo sapiens), sequence (P30556 whole entry): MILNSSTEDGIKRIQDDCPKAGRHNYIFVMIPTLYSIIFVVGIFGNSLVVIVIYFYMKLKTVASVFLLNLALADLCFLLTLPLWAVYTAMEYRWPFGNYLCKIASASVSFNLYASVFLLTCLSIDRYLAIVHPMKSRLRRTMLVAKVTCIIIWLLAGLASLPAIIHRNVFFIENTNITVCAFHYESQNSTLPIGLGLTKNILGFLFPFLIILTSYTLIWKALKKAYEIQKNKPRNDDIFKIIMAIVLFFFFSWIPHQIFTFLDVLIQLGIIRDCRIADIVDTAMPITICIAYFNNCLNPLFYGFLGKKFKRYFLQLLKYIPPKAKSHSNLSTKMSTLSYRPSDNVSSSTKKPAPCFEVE
Cannabinoid receptor 1, sequence (P21554 whole entry): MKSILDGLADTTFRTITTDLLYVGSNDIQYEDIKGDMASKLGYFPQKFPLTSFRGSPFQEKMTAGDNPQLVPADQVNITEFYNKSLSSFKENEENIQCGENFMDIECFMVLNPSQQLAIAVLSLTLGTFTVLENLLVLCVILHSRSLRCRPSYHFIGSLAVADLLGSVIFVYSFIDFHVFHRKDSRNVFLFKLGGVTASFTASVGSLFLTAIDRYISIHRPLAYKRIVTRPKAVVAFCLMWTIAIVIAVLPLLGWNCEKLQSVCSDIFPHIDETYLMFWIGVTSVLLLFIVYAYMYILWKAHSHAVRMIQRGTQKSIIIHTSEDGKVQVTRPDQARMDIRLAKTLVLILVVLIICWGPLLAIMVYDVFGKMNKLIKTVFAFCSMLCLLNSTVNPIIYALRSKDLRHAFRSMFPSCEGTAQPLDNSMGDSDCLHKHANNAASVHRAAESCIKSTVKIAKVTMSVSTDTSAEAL
Adenosine receptor A2a (Homo sapiens), sequence (P29274 whole entry): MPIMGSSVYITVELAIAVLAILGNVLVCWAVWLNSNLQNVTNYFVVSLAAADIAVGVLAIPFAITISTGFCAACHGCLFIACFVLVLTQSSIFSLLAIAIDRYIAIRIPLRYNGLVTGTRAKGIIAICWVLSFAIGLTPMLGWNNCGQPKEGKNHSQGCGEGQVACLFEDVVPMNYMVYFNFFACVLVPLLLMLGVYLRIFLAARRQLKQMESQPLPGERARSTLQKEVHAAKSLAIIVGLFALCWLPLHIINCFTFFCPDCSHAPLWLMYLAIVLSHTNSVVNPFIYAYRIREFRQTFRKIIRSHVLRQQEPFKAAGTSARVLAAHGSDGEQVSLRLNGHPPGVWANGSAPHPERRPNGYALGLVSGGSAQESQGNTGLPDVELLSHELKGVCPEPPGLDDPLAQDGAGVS
Cytochrome P450 2C9, sequence (P11712 whole entry): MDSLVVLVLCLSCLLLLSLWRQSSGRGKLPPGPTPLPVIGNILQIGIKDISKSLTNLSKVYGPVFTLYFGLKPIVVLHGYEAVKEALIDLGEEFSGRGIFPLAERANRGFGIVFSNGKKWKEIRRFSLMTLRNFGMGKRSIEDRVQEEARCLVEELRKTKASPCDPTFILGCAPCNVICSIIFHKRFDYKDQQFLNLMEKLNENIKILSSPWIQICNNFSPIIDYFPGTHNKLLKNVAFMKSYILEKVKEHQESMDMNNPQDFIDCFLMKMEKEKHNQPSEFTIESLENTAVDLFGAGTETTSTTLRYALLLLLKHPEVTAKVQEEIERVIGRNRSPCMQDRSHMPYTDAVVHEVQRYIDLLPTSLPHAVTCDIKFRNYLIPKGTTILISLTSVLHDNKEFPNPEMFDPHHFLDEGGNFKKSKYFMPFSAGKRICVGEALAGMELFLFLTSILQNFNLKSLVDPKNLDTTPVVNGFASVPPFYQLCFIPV
Cannabinoid receptor 2, sequence (P34972 whole entry): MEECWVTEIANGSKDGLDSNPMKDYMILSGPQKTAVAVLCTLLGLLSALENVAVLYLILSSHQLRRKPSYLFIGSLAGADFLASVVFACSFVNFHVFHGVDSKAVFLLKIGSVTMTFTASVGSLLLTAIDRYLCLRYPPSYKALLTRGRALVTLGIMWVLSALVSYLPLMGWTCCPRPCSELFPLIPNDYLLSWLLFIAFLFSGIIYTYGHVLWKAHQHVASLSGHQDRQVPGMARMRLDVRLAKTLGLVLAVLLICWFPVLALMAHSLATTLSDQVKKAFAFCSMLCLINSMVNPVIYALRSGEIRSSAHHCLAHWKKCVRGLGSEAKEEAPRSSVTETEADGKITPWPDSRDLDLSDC

Compound: Cn1ccc2c(Nc3cccc(Cl)c3)ncc(C(=O)N3CCOCC3)c21
- pIC50 (Cytochrome P450 1A2): < 4.00
- Activity [1]: < 10%
- Activity [2]: < 10%
- Activity [3]: < 10%
- Activity [4]: < 10%
- Activity [5]: < 10%
- Activity [6]: < 10%
- Activity [7]: 11%
- Activity [8]: < 10%
- pIC50 (Cytochrome P450 2C9): 4.38
- Activity [9]: < 10%
- pEC50 (Cannabinoid receptor 1): 5.20
- Activity [10]: < 10%
- Activity [11]: < 10%
- Ratio EC50 (Homo sapiens): 1200
- pEC50 (Cannabinoid receptor 2): 8.10
- minimal effective dose (Rattus norvegicus): 3 mg/kg
- concentration at 5 h [12]: 12.3 µM
